In one assay the target is T1, KRAS G12C 1-169, his-tagged protein, GDP-loaded (Homo sapiens, UniProt P01116, G12C).
T1 construct: KRAS G12C 1-169, his-tagged protein, GDP-loaded
The assay is described as follows: Biochemical assay: covalent modification of KRAS G12C measured by mass spectrometry (RapidFire/TOF or Q-Exactive). Note: time not given here. It is filed as binding. To be noted: tested at 32 μM. Summed up: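 GDP-loaded KRAS G12C 1-169 (his-tagged, 2 μM or 0.5 μM in 20 mM Hepes, 150 mM NaCl, 1 mM MgCl2) reacted with compound at 32 μM or 8 μM final, then quenched with formic acid. Intact-protein LC-MS (RapidFire/TOF or Q-Exactive) with charge-envelope deconvolution; % modification from modified vs unmodified peak intensities.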
Turning to `C=CC(=O)N1CCC2(C1)CN(c1ccc(F)c(-c3c(C)ccc4[nH]ncc34)c1C#N)C2` [Compound I-95, 6-(6-acryloyl-2,6-diazaspiro[3.4]octan-2-yl)-3-fluoro-2-(5-methyl-1H-indazol-4-yl)benzonitrile], the Bind % result was “+ (+ indicates binding activity greater than 0% and up to 50%)”.

`C=CC(=O)N1CCC2(CC1)CN(c1ccc(F)c(-c3c(C)ccc4[nH]ncc34)c1C#N)C2` [Compound I-96, 6-(7-acryloyl-2,7-diazaspiro[3.5]nonan-2-yl)-3-fluoro-2-(5-methyl-1H-indazol-4-yl)benzonitrile]: the Bind % entry was “+ (+ indicates binding activity greater than 0% and up to 50%)”.

Regarding `C=CC(=O)N1CC2(CCN(c3cc(N4CCOCC4)c(F)c(-c4c(C)ccc5cnn(C)c45)c3C#N)CC2)C1` [Compound I-97, 6-(2-acryloyl-2,7-diazaspiro[3.5]nonan-7-yl)-2-(1,6-dimethyl-1H-indazol-7-yl)-3-fluoro-4-morpholino-benzonitrile], the Bind % entry is “+ (+ indicates binding activity greater than 0% and up to 50%)”. Still for that read-out and setting: then `C=CC(=O)N1CC2(CCN(c3ccc(F)c(-c4c(C)ccc5[nH]ncc45)c3)C2)C1` [Compound I-99], with “++ (++ indicates binding activity from 50 to 75%)”; and `C=CC(=O)N1CC2(CCN(c3ccc(OC4CCN(C)CC4)c(-c4c(C)ccc5[nH]ncc45)c3C#N)CC2)C1` [Compound I-100, 6-(2-acryloyl-2,7-diazaspiro[3.5]nonan-7-yl)-2-(5-methyl-1H-indazol-4-yl)-3-((1-methylpiperidin-4-yl)oxy)benzo-nitrile], with “+ (+ indicates binding activity greater than 0% and up to 50%)”; and `C=CC(=O)N1CC2(CCN(c3ccc(C#N)c(-c4c(C)ccc5[nH]ncc45)c3)C2)C1` [Compound I-101, 4-(2-acryloyl-2,6-diazaspiro[3.4]octan-6-yl)-2-(5-methyl-1H-indazol-4-yl)benzonitrile], with “+ (+ indicates binding activity greater than 0% and up to 50%)”. With `C=CC(=O)N1CC2(CCN(c3ccc(F)c(-c4c(C)ccc5[nH]ncc45)c3)CC2)C1` [Compound I-102, 1-(7-(4-fluoro-3-(5-methyl-1H-indazol-4-yl)phenyl)-2,7-diazaspiro[3.5]nonan-2-yl)prop-2-en-1-one], the Bind % entry was “+ (+ indicates binding activity greater than 0% and up to 50%)”. The same measure, in the same setting: then `C=CC(=O)N1CC2(CCN(c3cc(OCCCN(C)C)c(OC)c(-c4c(C)ccc5[nH]ncc45)c3)CC2)C1` [Compound I-103, 1-(7-(3-(3-(dimethylamino)propoxy)-4-methoxy-5-(5-methyl-1H-indazol-4-yl)phenyl)-2,7-diazaspiro[3.5]nonan-2-yl)prop-2-en-1-one], with “++ (++ indicates binding activity from 50 to 75%)”; and `C=CC(=O)N1CC2(CCN(c3cc(OCCCN(C)C)c(OC)c(-c4c(C)ccc5cnn(C)c45)c3C#N)CC2)C1` [Compound I-104], with “+ (+ indicates binding activity greater than 0% and up to 50%)”; and `C=CC(=O)N1CC2(CCN(c3ccc(C#N)c(-c4c(C)ccc5[nH]ncc45)c3)CC2)C1` [Compound I-105, 4-(2-acryloyl-2,7-diazaspiro[3.5]nonan-7-yl)-2-(5-methyl-1H-indazol-4-yl)benzonitrile], with “+ (+ indicates binding activity greater than 0% and up to 50%)”. Consider `C=CC(=O)N1CC2(CCN(c3ccc(F)c(-c4c(C)ccc5[nH]ncc45)c3C#N)CC2)C1` [Compound I-106, 6-(2-acryloyl-2,7-diazaspiro[3.5]nonan-7-yl)-3-fluoro-2-(5-methyl-1H-indazol-4-yl)benzonitrile], for which the Bind % entry was “+ (+ indicates binding activity greater than 0% and up to 50%)”. For `C=CC(=O)N1CC2(CCN(c3cc(OCc4ccccn4)cc(-c4c(C)ccc5[nH]ncc45)c3)CC2)C1` [Compound I-107, 1-(7-(3-(5-methyl-1H-indazol-4-yl)-5-(pyridin-2-ylmethoxy)phenyl)-2,7-diazaspiro[3.5]nonan-2-yl)prop-2-en-1-one], the Bind % result was “+ (+ indicates binding activity greater than 0% and up to 50%)”. For the compound `C=CC(=O)N1CC2(CCN(c3cc(N4CCOCC4)cc(-c4c(C)ccc5[nH]ncc45)c3C#N)CC2)C1` [Compound I-108, 2-(2-acryloyl-2,7-diazaspiro[3.5]nonan-7-yl)-6-(5-methyl-1H-indazol-4-yl)-4-morpholino-benzonitrile], the Bind % entry is “+ (+ indicates binding activity greater than 0% and up to 50%)”. Still for that read-out and setting: for `C=CC(=O)N1CC2(CCN(c3ccc(OC4CCN(C)CC4)c(-c4c(C)ccc5cnn(C)c45)c3C#N)CC2)C1` [Compound I-109, 6-(2-acryloyl-2,7-diazaspiro[3.5]nonan-7-yl)-2-(1,6-dimethyl-1H-indazol-7-yl)-3-((1-methylpiperidin-4-yl)oxy)benzo-nitrile] the value was “+ (+ indicates binding activity greater than 0% and up to 50%)”; for `C=CC(=O)N1CC2(CCN(c3ccc(F)c(-c4c(C)ccc5[nH]ncc45)c3C#N)CC2)C1` [Compound I-111, 6-(2-acryloyl-2,7-diazaspiro[3.5]nonan-7-yl)-3-fluoro-2-(5-methyl-1H-indazol-4-yl)benzonitrile], “+ (+ indicates binding activity greater than 0% and up to 50%)”; for `C=CC(=O)N1CC2(CCN(c3ccc(C(F)(F)F)c(-c4c(C)ccc5[nH]ncc45)c3C#N)CC2)C1` [Compound I-112, 6-(2-acryloyl-2,7-diazaspiro[3.5]nonan-7-yl)-2-(5-methyl-1H-indazol-4-yl)-3-(trifluoromethyl) benzonitrile], “+ (+ indicates binding activity greater than 0% and up to 50%)”.

Turning to `C=CC(=O)N1CC2(CCN(c3cc(N4CC(N(C)C)C4)c(F)c(-c4c(C)ccc5[nH]ncc45)c3C#N)CC2)C1` [Compound I-114, 6-(2-acryloyl-2,7-diazaspiro[3.5]nonan-7-yl)-4-(3-(dimethylamino)azetidin-1-yl)-3-fluoro-2-(5-methyl-1H-indazol-4-yl)benzonitrile], the Bind % entry is “+ (+ indicates binding activity greater than 0% and up to 50%)”. Same read-out and setting: then `C=CC(=O)N1CC2(CCN(c3ccc(Nc4ccccc4)c(-c4c(C)ccc5[nH]ncc45)c3C#N)CC2)C1` [Compound I-115, 6-(2-acryloyl-2,7-diazaspiro[3.5]nonan-7-yl)-2-(5-methyl-1H-indazol-4-yl)-3-(phenylamino) benzonitrile], with “+ (+ indicates binding activity greater than 0% and up to 50%)”; and `C=CC(=O)N1CC2(CCN(c3cccc(-c4c(C)ccc5[nH]ncc45)c3C#N)CC2)C1` [Compound I-116, 2-(2-acryloyl-2,7-diazaspiro[3.5]nonan-7-yl)-6-(5-methyl-1H-indazol-4-yl)benzonitrile], with “+ (+ indicates binding activity greater than 0% and up to 50%)”; and `C=CC(=O)N1CC2(CCN(c3cc(NCc4ccccn4)c(F)c(-c4c(C)ccc5[nH]ncc45)c3C#N)CC2)C1` [Compound I-117, 6-(2-acryloyl-2,7-diazaspiro[3.5]nonan-7-yl)-3-fluoro-2-(5-methyl-1H-indazol-4-yl)-4-((pyridin-2-ylmethyl)amino) benzonitrile], with “++ (++ indicates binding activity from 50 to 75%)”. The same measure, in the same setting: then `C=CC(=O)N1CC2(CCN(c3ccc(F)c(-c4c(C)ccc5[nH]ncc45)c3Cl)CC2)C1` [Compound I-118, 1-(7-(2-chloro-4-fluoro-3-(5-methyl-1H-indazol-4-yl)phenyl)-2,7-diazaspiro[3.5]nonan-2-yl)prop-2-en-1-one], with “+ (+ indicates binding activity greater than 0% and up to 50%)”; and `C=CC(=O)N1CC2(CCN(c3cc(OCCCN(C)C)c(F)c(-c4c(C)ccc5cnn(C)c45)c3C#N)CC2)C1` [Compound I-119, 6-(2-acryloyl-2,7-diazaspiro[3.5]nonan-7-yl)-2-(1,6-dimethyl-1H-indazol-7-yl)-4-(3-(dimethylamino)propoxy)-3-fluorobenzo-nitrile], with “+ (+ indicates binding activity greater than 0% and up to 50%)”; and `C=CC(=O)N1CC2(CCN(c3cc(NCCN4CCCC4)c(F)c(-c4c(C)ccc5[nH]ncc45)c3C#N)CC2)C1` [Compound I-120, 6-(2-acryloyl-2,7-diazaspiro[3.5]nonan-7-yl)-3-fluoro-2-(5-methyl-1H-indazol-4-yl)-4-((2-(pyrrolidin-1-yl)ethyl)amino) benzonitrile], with “+ (+ indicates binding activity greater than 0% and up to 50%)”. Regarding `C=CC(=O)N1CC2(CCN(c3cc(N4CCCC4)c(F)c(-c4c(C)ccc5[nH]ncc45)c3C#N)CC2)C1` [Compound I-121, 6-(2-acryloyl-2,7-diazaspiro[3.5]nonan-7-yl)-3-fluoro-2-(5-methyl-1H-indazol-4-yl)-4-(pyrrolidin-1-yl)benzonitrile], the Bind % result was “+ (+ indicates binding activity greater than 0% and up to 50%)”.

Still in this assay, the particulars now being: tested at a concentration of 8 μM.
Turning to `C=CC(=O)N1CC2(CCN(c3ccc(Cl)c(-c4c(C)ccc5[nH]ncc45)c3C#N)C2)C1` [Compound I-98, 6-(2-acryloyl-2,6-diazaspiro[3.4]octan-6-yl)-3-chloro-2-(5-methyl-1H-indazol-4-yl)benzonitrile], the Bind % entry is reported as “++ (++ indicates binding activity from 50 to 75%)”. Same read-out and setting: then `C=CC(=O)N1CC2(C1)CN(c1ccc(F)c(-c3c(C)ccc4[nH]ncc34)c1C#N)C2` [Compound I-110, 6-(6-acryloyl-2,6-diazaspiro[3.3]heptan-2-yl)-3-fluoro-2-(5-methyl-1H-indazol-4-yl)benzonitrile], with “+ (+ indicates binding activity greater than 0% and up to 50%)”; and `C=CC(=O)N1CC2(CCN(c3cc(OCCCN(C)C)c(F)c(-c4c(C)ccc5[nH]ncc45)c3C#N)CC2)C1` [Compound I-113, 6-(2-acryloyl-2,7-diazaspiro[3.5]nonan-7-yl)-4-(3-(dimethylamino)propoxy)-3-fluoro-2-(5-methyl-1H-indazol-4-yl)benzonitrile], with “+ (+ indicates binding activity greater than 0% and up to 50%)”.

The values are drawn from patent US20210380595A1 (ARAXES PHARMA LLC, priority 2018, published 2021).
